Measured values: US20230406847A1, “LIGANDS OF PROSTATE SPECIFIC MEMBRANE ANTIGEN (PSMA) CONTAINING HETEROAROMATIC LINKER BUILDING BLOCKS” (ABX ADVANCED B[…] GMBH, priority 2020, published 2023)

Each compound was assayed on human PSMA+ LNCaP cells (assay: Internalization of radiolabelled compounds in LNCaP cells). Settings: 0.75 h, 0.03 µM.
Assay type: cell-based
Protocol: Gallium labeling was carried out using 90 μL HEPES in water (580 mg/mL; ultrapure-grade, Merck, Darmstadt, Germany) mixed with 40 μL of [^68Ga]GaCl3. The pH of the mixture was adjusted to 3.8 to 4.1 with NaOH (30%; ultrapure-grade, Merck, Darmstadt, Germany). Subsequently 1.0 nmol of a synthesized compound of Example 3 to 10 was added and incubated at 98 ° C. for 10 to 15 minutes. For the competitive cell assay, the precursor amount was diminished to 0.5 nmol.
Lutetium labelling was carried out using 115 μL of sodium acetate buffer (400 mM, pH mixed with 10 to 20 MBq [177Lu]LuCl3. Subsequently, 1.0 nmol of a synthesized compound of Example 3 to 10 was added and incubated at 98 ° C. for 20 to 25 minutes.
Cell binding studies were performed using human PSMA+ LNCaP cells (ATCC CRL-1740) cultured in RPMI 1640 medium supplemented with 10% fetal bovine serum (Sera plus, PAN Biotech) and 2 mmol/l stable glutamine (PAN Biotech). Cells were grown at 37° C. in an incubator with humidified air and 5% CO2. Trypsin/EDTA 0.5%/0.02% in PBS (PAN Biotech) was used to harvest cells.
1×10^5 LNCaP cells were seeded in poly-L-lysine coated 24-well-plates for 24 h at 37° C. humidified air with 5% CO2. After removing the medium, cells were incubated with radiolabelled compounds of Example 11 (30 nM) for 45 minutes at 37° C. and at 4° C. respectively. For determination of specific cell uptake, cells were blocked with PMPA (Tocris) at a concentration of 500 μM. The cells were washed three times with 1 ml ice-cold PBS, twice with 500 μl glycine-HCl (50mM; pH 2.8) for 5 min at rt to remove the surface-bound radioactivity and with 1 ml ice-cold PBS. Subsequent the cells were lysed with 0.5 ml 0.3M NaOH. The internalized and the surface-bound fractions were measured in a gammacounter.

| Compound | internalisation rate (%) |
| --- | --- |
| O=C(O)CC[C@H](NC(=O)N[C@@H](CCCCNC(=O)[C@H](Cc1ccc2ccccc2c1)NC(=O)[C@H]1CC[C@H](CNC(=O)CN2CCN(CC(=O)O)CCN(CC(=O)O)CCN(CC(=O)O)CC2)CC1)C(=O)O)C(=O)O [PSMA-617, (3S,10S,14S)-3-[(naphthalen-2-yl)methyl]-1,4,12-trioxo-1-[(1R,4S)-4-[[2-[4,7,10-tris(carboxymethyl)-1,4,7,10-etraazacyclododecan-1-yl]acetamido]methyl]cyclo-hexyl]-2,5,11 ,13-tetraazahexadecane-10,14,16-tricarboxylic acid, reference compound] | 31.1% |

Same assay, conditions: radiolabelled compounds (30 nM), 45 minutes, 37° C. and 4° C., LNCaP cells, specific uptake by blocking with PMPA 500 μM

| Compound | internalisation rate (%) |
| --- | --- |
| O=C(O)CC[C@H](NC(=O)N[C@@H](CCCCNC(=O)[C@H](Cc1ccc2ccccc2c1)NC(=O)c1ccc(CNC(=O)CN2CCN(CC(=O)O)CCN(CC(=O)O)CCN(CC(=O)O)CC2)s1)C(=O)O)C(=O)O [Example ABX272] | 41.4% |
| O=C(O)CC[C@H](NC(=O)N[C@@H](CCCCNC(=O)[C@H](Cc1csc2ccccc12)NC(=O)c1cc(CNC(=O)CN2CCN(CC(=O)O)CCN(CC(=O)O)CCN(CC(=O)O)CC2)on1)C(=O)O)C(=O)O [Example ABX338] | 40.8% |
| O=C(O)CC[C@H](NC(=O)N[C@@H](CCCCNC(=O)[C@H](Cc1csc2ccccc12)NC(=O)c1cc(CNC(=O)[C@H](CCCCNc2ccc([N+](=O)[O-])cc2[N+](=O)[O-])NC(=O)CN2CCN(CC(=O)O)CCN(CC(=O)O)CCN(CC(=O)O)CC2)on1)C(=O)O)C(=O)O [Example ABX341] | 61.3% |
| O=C(O)CC[C@H](NC(=O)N[C@@H](CCCCNC(=O)[C@H](Cc1ccc2ccccc2c1)NC(=O)c1cc(CNC(=O)CN2CCN(CC(=O)O)CCN(CC(=O)O)CCN(CC(=O)O)CC2)on1)C(=O)O)C(=O)O [Example ABX288] | 33.2% |
| O=C(O)CC[C@H](NC(=O)N[C@@H](CCCCNC(=O)[C@H](Cc1ccc2ccccc2c1)NC(=O)c1cc(CNC(=O)[C@H](CCCCNc2ccc([N+](=O)[O-])cc2[N+](=O)[O-])NC(=O)CN2CCN(CC(=O)O)CCN(CC(=O)O)CCN(CC(=O)O)CC2)on1)C(=O)O)C(=O)O [Example ABX339] | 60.6% |
| O=C(O)CC[C@H](NC(=O)N[C@@H](CCCCNC(=O)[C@H](Cc1csc2ccccc12)NC(=O)c1cc(CNC(=O)[C@H](CCCCNC(=O)c2ccc(I)cc2)NC(=O)CN2CCN(CC(=O)O)CCN(CC(=O)O)CCN(CC(=O)O)CC2)on1)C(=O)O)C(=O)O [Example ABX346] | 46.7% |
| O=C(O)CC[C@H](NC(=O)N[C@@H](CCCCNC(=O)[C@H](Cc1ccc2ccccc2c1)NC(=O)c1ccc(CNC(=O)CN2CCN(CC(=O)O)CCN(CC(=O)O)CCN(CC(=O)O)CC2)nc1)C(=O)O)C(=O)O [Example ABX289] | 55.7% |
| Cc1nc(CNC(=O)CN2CCN(CC(=O)O)CCN(CC(=O)O)CCN(CC(=O)O)CC2)sc1C(=O)N[C@@H](Cc1ccc2ccccc2c1)C(=O)NCCCC[C@H](NC(=O)N[C@@H](CCC(=O)O)C(=O)O)C(=O)O [Example ABX271] | 37.8% |
